Laboratory results reported in publication PMC12304293, “Combatting virulent gut bacteria by inhibiting the biosynthesis of a two-component lanthipeptide toxin” (Nature Communications, 2025).
“And” between values parts separate entries of the source, which are not always exact repeats. Equal entries are not always repeated. Non-standard residues stand in square brackets, D forms with d. Residues, ends and D or L forms follow the SMILES beside them. *: point of attachment. boroGlu = O=C(O)CC[C@H](N*)B(O)O; Gly(cPr) = N[C@H](C(=O)O)C1CC1

What was measured:
[1] = test system: cylLL, cylLS, and cylA transcripts in C+ E. faecalis ATCC 29212; assay: RT-qPCR of cylLL, cylLS and cylA transcripts; format: cell-based, Enterococcus faecalis
Experimental: Since the cytolysin BGC is often expressed in two transcripts because of the presence of a weak intergenic terminator between cylLL and cylM, primers and amplicons were selected for cylLL, cylLS and cylA[67].
The amounts of cylLL, cylLS, and cylA transcripts relative to the amount of 16S rRNA were determined by RT-qPCR. Amplicons and primers used to quantify cylLL, cylLS and 16S rRNA were identical to those previously reported. All primers are listed in Supplementary Table 3. Overnight cultures of E. faecalis ATCC 29212 were prepared as described in ‘Detection of CylLS” from extracts of E. faecalis’. Upon inoculation, samples were treated with 100 μM of 9 or vehicle. The samples were incubated at 37 °C for 20 h, then cells were collected by centrifugation (5000 g for 10 min). The supernatant was removed and the cells pellets were re-suspended in Lysis buffer (10 mM TrisHCl, 3 mg/mL lysozyme, pH = 7.8) at a concentration of 160 μL of Lysis buffer for 1 mL of overnight culture. The cells were incubated in Lysis buffer at room temperature for 15 min then RNA was extracted using a Monarch® Total RNA Miniprep Kit. Isolated RNA was immediately converted to cDNA using an iScript™ cDNA Synthesis Kit. cDNA was amplified using a SsoAdvanced Universal SYBR Green Supermix and a StepOnePlus Real-Time PCR System (Applied Biosystems). The expression level of each gene in each sample was determined by taking the difference between the CT of the amplification curve for the gene of interest (cylLL, cylLS or cylA) and the CT of the amplification curve for 16S rRNA, yielding ΔCT. ΔΔCT was determined by taking the difference between the ΔCT of the inhibitor treated sample and the ΔCT of the inhibitor-free control for each gene. Fold change in gene expression was calculature using Eq. (2)[76]. Four biological replicates were performed.2 Foldchangeingeneexpression=2^ΔΔCT

[2] = format: in vitro ADME, Enterococcus faecalis; settings: 100 µM, 37 °C, 20 h
Experimental: To investigate the stability of 9 in the presence of E. faecalis, cell extracts treated with 9 were tested for inhibitory activity. […] Cultures that were treated with 100 µM of 9 at 37 °C for 20 h gave extracts that inhibited the activity of CylA in vitro. The inhibitory activity of these extracts was about 3-fold less than a sample of fresh 9.
Similiarly, 9 was diluted to 100 µM in BHI that was inoculated with E. faecalis ATCC 29212 before incubating at 37 °C for 20 h. The overnight culture was flash frozen and lyophilized. The lyophilized samples were extracted with a volume of 90% methanol/10% water that was equal to the volume of the sample prior to lyophilization. The extract was assumed to have a concentration of 100 µM. […]
Human Serum + 9 Human Serum
Log(Concentration (µM)) Log(Concentration(µM))
Supplementary Figure 19. The stability of inhibitor 9 in the pres ence of human serum or C+ E. faecalis. A ) C y l A i nhibition activity of an extract of human s erum treated with 9 (100 μM) for 3 h at 37 ̊C. The resulting solution was used to determine the remaining activity of the inhibitor in a […]
CylA activity assay. […] This experiment was perform ed on three different samples of inhibitor (n = 3). […]
(also on this page, place not known: determined. inhibition CylA These IC 50 presence serum This performed A) Non-linear fitting v i/vo IC 50. […]

[3] = test system: CylLS” in C+ E. faecalis ATCC 29212; assay: Detection of CylLS” from extracts of E. faecalis (LCMS); format: cell-based, Enterococcus faecalis; settings: for Concentration CylLS (Figure 8C), replicates 1-4: ATCC 29212 overnight culture extract; for Concentration CylLS (Figure 8C), avg: n = 4
Experimental: To determine if inhibitor 9 blocks the maturation of cytolysin in C+ E. faecalis, an LCMS method was developed to estimate the concentration of CylLS” in cell extracts. This method employed biosynthetically prepared ^15N,^13C-labeled CylLS” as an internal standard. Cultures of E. faecalis were treated with inhibitor 9 or vehicle then lyophilized and extracted with methanol.
An overnight culture of E. faecalis ATCC 29212 was diluted to an OD600 equal to 2.0 in BHI then further diluted 1000-fold in BHI. Inhibitor 9 or vehicle was added immediately after dilution and the inoculated samples were incubated with shaking at 37 °C for 20 h. Following incubation, a 400 µL aliquot of each sample was flash frozen and lyophilized. Each lyophilized sample was extracted with 400 µL of 90% methonal/10% water containing ^15N,^13C-labeled CylLS” (5.8 nM). Alternating rounds of water bath sonication and vortexing were used to homogenize the samples. Once homogenized, the samples were allowed to stand at room temperature for 1 h then were centrifuged at 16,000 g for 10 min, incubated at −20 °C for 1 h, and centrifuged at 16,000 g for 10 min. The supernatant was analyzed by LCMS using injection volumes of 5 µL. EIC corresponding to the exact masses of [M + 2H]^2+ and [M+Na+H]^2+ were integrated and the peak areas were added together giving the total CylLS” and internal standard responses. The concentration of CylLS” was estimated from the response ratio multiplied by the concentration of the internal standard.

[4] = 100 μM of 9, untreated control = 1.0

CC(=O)NCC(=O)N[C@@H](CC(=O)O)C(=O)N[C@H](C(=O)N[C@@H](CCC(N)=O)C(=O)N[C@@H](C)C(=O)N[C@@H](CCC(=O)O)B(O)O)C1CC1 [Compound 9] (Ac-GD[Gly(cPr)]QA-boroGlu)
Fold Change, gene CylA (Figure 8D), replicates [1, 4]: 0.01989 and 0.0236 and 0.00144 and 0.00137 | Fold Change, gene CylLL (Figure 8D), replicates [1, 4]: 0.00585 and 0.2177 and 0.1852 | Fold Change, gene CylLS (Figure 8D), replicates [1, 4]: 0.2335 and 0.2124 and 0.00397 and 0.00605 | reduction in cylA transcripts ([1]; 100 μM, vs untreated control): 86 fold | reduction in cylLL transcripts ([1]; 100 μM, vs untreated control): 9-10 fold | reduction in cylLS transcripts ([1]; 100 μM, vs untreated control): 9-10 fold | inhibitory activity of culture extracts less than a sample of fresh 9 [2]: about 3 fold | stability in cultures of E. faecalis [2]: relatively good stability | quantities of CylLS” less than the untreated control ([3]; 100 µM, on average): 5.5 fold | Concentration CylLS (Figure 8C), replicates 1-4 ([3]; Conc 1 uM of 9): 1.79 nM and 1.72 nM and 1.6 nM and 1.8 nM | Concentration CylLS (Figure 8C), avg ([3]; Conc 1 uM of 9): 1.726 nM | Concentration CylLS (Figure 8C), replicates 1-4 ([3]; Conc 10 uM of 9): 2.34 nM and 2.21 nM and 2.19 nM and 2.55 nM | Concentration CylLS (Figure 8C), avg ([3]; Conc 10 uM of 9): 2.322 nM | Concentration CylLS (Figure 8C), replicates 1-4 ([3]; Conc 100 uM of 9): 0.272 nM and 0.227 nM and 0.262 nM and 0.247 nM | Concentration CylLS (Figure 8C), avg ([3]; Conc 100 uM of 9): 0.2518 nM
